Measured values taken from ChEMBL document CHEMBL1201862, “PubChem BioAssay data set” (2004).
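Results reflect a 48-hour exposure of cells in 96-well plates to compound at five concentrations. GI50 = concentration required for 50% inhibition of growth.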 Calls of active or inactive are those of the source. No stated cut-off is given here; in the data, active = GI50 up to about 1.1 µM and inactive = higher.

How the values were obtained:
Experiment in all cases: inhibition of tumour cell growth, NCI panel, 48 h
UACC-257 = tested on: UACC-257
CCRF-CEM = tested on: CCRF-CEM
SR = tested on: SR
HT-29 = tested on: HT-29
MCF7 = tested on: MCF7
SK-MEL-2 = tested on: SK-MEL-2
786-0 = tested on: 786-0
RPMI-8226 = tested on: RPMI-8226
IGROV-1 = tested on: IGROV-1
HL-60 = tested on: HL-60
TK-10 = tested on: TK-10
OVCAR-5 = tested on: OVCAR-5
NCI-H226 = tested on: NCI-H226
SK-MEL-28 = tested on: SK-MEL-28
OVCAR-3 = tested on: OVCAR-3
SK-MEL-5 = tested on: SK-MEL-5
T47D = tested on: T47D
SF-268 = tested on: SF-268
BT-549 = tested on: BT-549
RXF 393 = tested on: RXF 393
MDA-MB-435 = tested on: MDA-MB-435
HOP-92 = tested on: HOP-92
MDA-N = tested on: MDA-N
KM12 = tested on: KM12
Hs-578T = tested on: Hs-578T
SK-OV-3 = tested on: SK-OV-3
OVCAR-4 = tested on: OVCAR-4
K562 = tested on: K562
NCI-H522 = tested on: NCI-H522
NCI-H460 = tested on: NCI-H460
DU-145 = tested on: DU-145
OVCAR-8 = tested on: OVCAR-8
UO-31 = tested on: UO-31
Malme-3M = tested on: Malme-3M
SW-620 = tested on: SW-620
SNB-19 = tested on: SNB-19
HCT-116 = tested on: HCT-116
MDA-MB-231 = tested on: MDA-MB-231
EKVX = tested on: EKVX
SF-295 = tested on: SF-295
A549 = tested on: A549
UACC-62 = tested on: UACC-62
M14 = tested on: M14
LOX IMVI = tested on: LOX IMVI
HCT-15 = tested on: HCT-15
CAKI-1 = tested on: CAKI-1
NCI/ADR-RES = tested on: NCI/ADR-RES
NCI-H23 = tested on: NCI-H23
A498 = tested on: A498
SN12C = tested on: SN12C
SF-539 = tested on: SF-539
ACHN = tested on: ACHN
U-251 = tested on: U-251
HCC 2998 = tested on: HCC 2998
MOLT-4 = tested on: MOLT-4
COLO 205 = tested on: COLO 205
PC-3 = tested on: PC-3
HOP-62 = tested on: HOP-62
SNB-75 = tested on: SNB-75

COc1cc(C=C2C(C)=NN(c3cccc(Cl)c3)C23SCC(=O)N3c2nc3ccccc3s2)ccc1O (stereo not drawn)
GI50 (UACC-257): 32.7 µM (inactive)
GI50 (CCRF-CEM): 4.56 µM (inactive)
GI50 (SR): 13.2 µM (inactive)
GI50 (HT-29): 33 µM (inactive)
GI50 (MCF7): 27.7 µM (inactive)
GI50 (SK-MEL-2): 19.4 µM (inactive)
GI50 (786-0): 29.5 µM (inactive)
GI50 (RPMI-8226): 13.4 µM (inactive)
GI50 (IGROV-1): 29.4 µM (inactive)
GI50 (HL-60): 3.72 µM (inactive)
GI50 (TK-10): 35.3 µM (inactive)
GI50 (OVCAR-5): 46.3 µM (inactive)
GI50 (NCI-H226): 35.1 µM (inactive)
GI50 (SK-MEL-28): 33 µM (inactive)
GI50 (OVCAR-3): 27 µM (inactive)
GI50 (SK-MEL-5): 18.2 µM (inactive)
GI50 (T47D): 33.3 µM (inactive)
GI50 (SF-268): 23.2 µM (inactive)
GI50 (BT-549): 25.9 µM (inactive)
GI50 (RXF 393): 29.2 µM (inactive)
GI50 (MDA-MB-435): 29.4 µM (inactive)
GI50 (HOP-92): 18 µM (inactive)
GI50 (MDA-N): 31.5 µM (inactive)
GI50 (KM12): 30.8 µM (inactive)
GI50 (Hs-578T): 9.46 µM (inactive)
GI50 (SK-OV-3): 21.4 µM (inactive)
GI50 (OVCAR-4): 36.2 µM (inactive)
GI50 (K562): 17.3 µM (inactive)
GI50 (NCI-H522): 17.9 µM (inactive)
GI50 (NCI-H460): 35.6 µM (inactive)
GI50 (DU-145): 32.4 µM (inactive)
GI50 (OVCAR-8): 20.1 µM (inactive)
GI50 (UO-31): 30.6 µM (inactive)
GI50 (Malme-3M): 16.5 µM (inactive)
GI50 (SW-620): 27.3 µM (inactive)
GI50 (SNB-19): 31.8 µM (inactive)
GI50 (HCT-116): 24.7 µM (inactive)
GI50 (MDA-MB-231): 20.8 µM (inactive)
GI50 (EKVX): 39.5 µM (inactive)
GI50 (SF-295): 33.6 µM (inactive)
GI50 (A549): 29.6 µM (inactive)
GI50 (UACC-62): 26.7 µM (inactive)
GI50 (M14): 40.3 µM (inactive)
GI50 (LOX IMVI): 27.5 µM (inactive)
GI50 (HCT-15): 30.4 µM
GI50 (CAKI-1): 29.6 µM (inactive)
GI50 (NCI/ADR-RES): 33 µM (inactive)
GI50 (NCI-H23): 30.1 µM (inactive)
GI50 (A498): 26.4 µM (inactive)
GI50 (SN12C): 30.1 µM (inactive)
GI50 (SF-539): 24.3 µM (inactive)
GI50 (ACHN): 26.1 µM (inactive)
GI50 (U-251): 18.8 µM (inactive)
GI50 (HCC 2998): 24.3 µM (inactive)
GI50 (MOLT-4): 15.8 µM (inactive)
GI50 (COLO 205): 16.9 µM (inactive)
GI50 (PC-3): 21.3 µM (inactive)
GI50 (HOP-62): 26 µM (inactive)

Cc1ccc(O)c(C(c2ccc(C(c3cc(C)ccc3O)c3cc(C)ccc3O)cc2)c2cc(C)ccc2O)c1
GI50 (UACC-257): 1.85 µM (inactive)
GI50 (CCRF-CEM): 2.28 µM (inactive)
GI50 (SR): 2.62 µM (inactive)
GI50 (HT-29): 1.87 µM (inactive)
GI50 (MCF7): 2.31 µM (inactive)
GI50 (SK-MEL-2): 1.86 µM (inactive)
GI50 (786-0): 1.67 µM (inactive)
GI50 (RPMI-8226): 1.56 µM (inactive)
GI50 (IGROV-1): 1.67 µM (inactive)
GI50 (HL-60): 2.26 µM (inactive)
GI50 (TK-10): 1.56 µM (inactive)
GI50 (OVCAR-5): 1.84 µM (inactive)
GI50 (NCI-H226): 1.86 µM (inactive)
GI50 (SK-MEL-28): 1.81 µM (inactive)
GI50 (OVCAR-3): 1.74 µM (inactive)
GI50 (SK-MEL-5): 1.77 µM (inactive)
GI50 (T47D): 1.75 µM (inactive)
GI50 (SF-268): 1.62 µM (inactive)
GI50 (BT-549): 2.01 µM (inactive)
GI50 (RXF 393): 1.79 µM (inactive)
GI50 (MDA-MB-435): 1.7 µM (inactive)
GI50 (HOP-92): 2.32 µM (inactive)
GI50 (MDA-N): 1.52 µM (inactive)
GI50 (KM12): 1.67 µM (inactive)
GI50 (Hs-578T): 2.39 µM (inactive)
GI50 (SK-OV-3): 1.68 µM (inactive)
GI50 (OVCAR-4): 1.79 µM (inactive)
GI50 (K562): 1.77 µM (inactive)
GI50 (NCI-H522): 2.08 µM (inactive)
GI50 (DU-145): 1.74 µM (inactive)
GI50 (OVCAR-8): 1.81 µM (inactive)
GI50 (UO-31): 1.85 µM (inactive)
GI50 (Malme-3M): 1.88 µM (inactive)
GI50 (SW-620): 1.82 µM (inactive)
GI50 (SNB-19): 1.52 µM (inactive)
GI50 (HCT-116): 1.67 µM (inactive)
GI50 (MDA-MB-231): 1.25 µM (inactive)
GI50 (EKVX): 1.87 µM (inactive)
GI50 (SF-295): 2.06 µM (inactive)
GI50 (A549): 1.67 µM (inactive)
GI50 (UACC-62): 1.71 µM (inactive)
GI50 (SNB-75): 1.89 µM (inactive)
GI50 (M14): 1.8 µM (inactive)
GI50 (LOX IMVI): 1.69 µM (inactive)
GI50 (HCT-15): 1.8 µM
GI50 (CAKI-1): 1.56 µM (inactive)
GI50 (NCI/ADR-RES): 1.88 µM (inactive)
GI50 (NCI-H23): 1.79 µM (inactive)
GI50 (A498): 1.56 µM (inactive)
GI50 (SN12C): 1.65 µM (inactive)
GI50 (SF-539): 1.75 µM (inactive)
GI50 (ACHN): 1.78 µM (inactive)
GI50 (U-251): 1.98 µM (inactive)
GI50 (HCC 2998): 1.8 µM (inactive)
GI50 (MOLT-4): 2.9 µM (inactive)
GI50 (COLO 205): 1.33 µM (inactive)
GI50 (PC-3): 1.59 µM (inactive)
GI50 (HOP-62): 1.92 µM (inactive)

CCOC(=O)c1c(CN2CCCC2)n(-c2ccccc2)c2cc(Br)c(OC)cc12
GI50 (UACC-257): 13.2 µM (inactive)
GI50 (CCRF-CEM): 8.87 µM (inactive)
GI50 (SR): 6.14 µM (inactive)
GI50 (HT-29): 7.57 µM (inactive)
GI50 (MCF7): 6.87 µM (inactive)
GI50 (SK-MEL-2): 18 µM (inactive)
GI50 (786-0): 15 µM (inactive)
GI50 (RPMI-8226): 12.8 µM (inactive)
GI50 (IGROV-1): 16.5 µM (inactive)
GI50 (HL-60): 12.5 µM (inactive)
GI50 (TK-10): 11.8 µM (inactive)
GI50 (OVCAR-5): 19.5 µM (inactive)
GI50 (NCI-H226): 13.3 µM (inactive)
GI50 (SK-MEL-28): 15.6 µM (inactive)
GI50 (OVCAR-3): 24.9 µM (inactive)
GI50 (SK-MEL-5): 12.3 µM (inactive)
GI50 (T47D): 14.5 µM (inactive)
GI50 (SF-268): 46.6 µM (inactive)
GI50 (BT-549): 18.7 µM (inactive)
GI50 (RXF 393): 0.574 µM (active)
GI50 (MDA-MB-435): 26.9 µM (inactive)
GI50 (HOP-92): 10.6 µM (inactive)
GI50 (MDA-N): 29.3 µM (inactive)
GI50 (Hs-578T): 29.9 µM (inactive)
GI50 (SK-OV-3): 25.5 µM (inactive)
GI50 (OVCAR-4): 33.4 µM (inactive)
GI50 (K562): 16.2 µM (inactive)
GI50 (NCI-H522): 13.7 µM (inactive)
GI50 (NCI-H460): 6.89 µM (inactive)
GI50 (DU-145): 17.7 µM (inactive)
GI50 (OVCAR-8): 29.2 µM (inactive)
GI50 (UO-31): 11.5 µM (inactive)
GI50 (Malme-3M): 16.7 µM (inactive)
GI50 (SW-620): 18 µM (inactive)
GI50 (SNB-19): 33.7 µM (inactive)
GI50 (HCT-116): 11.2 µM (inactive)
GI50 (MDA-MB-231): 17.2 µM (inactive)
GI50 (EKVX): 20 µM (inactive)
GI50 (SF-295): 14.8 µM (inactive)
GI50 (A549): 7.35 µM (inactive)
GI50 (UACC-62): 10.9 µM (inactive)
GI50 (SNB-75): 5.97 µM (inactive)
GI50 (M14): 16.3 µM (inactive)
GI50 (LOX IMVI): 13.8 µM (inactive)
GI50 (HCT-15): 14.4 µM
GI50 (CAKI-1): 41.6 µM (inactive)
GI50 (NCI/ADR-RES): 15.2 µM (inactive)
GI50 (NCI-H23): 20.5 µM (inactive)
GI50 (A498): 4.78 µM (inactive)
GI50 (SN12C): 26.1 µM (inactive)
GI50 (SF-539): 23.6 µM (inactive)
GI50 (ACHN): 11.1 µM (inactive)
GI50 (U-251): 16.1 µM (inactive)
GI50 (MOLT-4): 4.41 µM (inactive)
GI50 (COLO 205): 11.8 µM (inactive)
GI50 (PC-3): 20.8 µM (inactive)
GI50 (HOP-62): 8.75 µM (inactive)
